# Results taken from patent publication US20170304228A1, “NEW INDICATION OF CINACALCET HCL PHARMACEUTICAL COMPOSITION FOR TREATING CANCER” (LAUNX BIOMEDICAL CO., LTD., priority 2014, published 2017).
# Counter-ions that a name gives are not always drawn. Like-named read-outs stand apart in the source and are kept apart here.
# Columns and labels:
# Format in all cases: cell-based
# [1] = tested on: A375; test: Cell viability analysis (WST-1), A375; settings: Homo sapiens, read-out: survival rate (viability) of cells
# Description: (§1) The cell numbers were counted and reseed as 2×10^6 in culture plate/flask. Then, the culture medium were added to a volume of 10 ml, and the cells were cultured for 2-3 days. Then, the cells were suspended for loading into 96-well plates. The number of cells was 3000 and the volume of the culture medium was 100 μl each well.
# (§2) Removing the original culture medium from 96-well plate. Then add 100 μl of commercially drug at a concentration of 10 μM per well. After 72 hours, add the diluted WST-1 reagent to the well with 100 μl/well, and the diluted WST-1 reagent was acquired from the dilution of 9:1 medium and WST-1 stock reagent. Finally, the total volume of each well was 200 μl/well. Culture the 96-well plate at 37° C. for 30 to 90 minutes. Detecting and calculate the survival rate of each cancer cells with an ELISA reader at OD450 nm. The lower viability of cancer cells represents better inhibition effect via the Cinacalcet HCl drug. Otherwise, the higher viability of cancer cells represents worse inhibition effect via the Cinacalcet HCl drug.
# (§3) This inhibition test of Cinacalcet HCl on other cancer cells were using osteosarcoma cell line U2OS (Table 14), skin cancer cell lines A375 and BCC (Table 15). The inhibitory tests of Cinacalcet HCl were performed 4 times for each cell lines and then the average value of the inhibitory tests was calculated.
# [2] = tested on: H1650; test: Cell viability analysis (WST-1), H1650; settings: Homo sapiens, read-out: survival rate (viability) of cells
# Description: as §1
# as §2, with “Culture the 96-well plate at 37° C. for 30 to 90 minutes.” left out
# (§4) This inhibition test of Cinacalcet HCl on pleural-related cancer cells were using two lung cancer cell lines A549 and H1650. The inhibitory tests of Cinacalcet HCl were performed 4 times for each cell lines and then the average value of the inhibitory tests was calculated.
# [3] = tested on: Hep3B; test: Cell viability analysis (WST-1), Hep3B; settings: Homo sapiens, read-out: survival rate (viability) of cells
# Description: as §1, §2
# (§5) This inhibition test of Cinacalcet HCl on gastrointestinal tract-related cancer cells were using gastric cancer cell lines AGS and MKN-45 (Table 9), hepatic cancer cell lines HepG2 and Hep3B (Table 10), colorectal cancer cell lines HCT116-wt and LoVo (Table 11), pancreatic cancer cell line AsPC-1 and BxPC-3(Table 12), tongue cancer cell line SAS (Table 13). The inhibitory tests of Cinacalcet HCl were performed 4 times for each cell lines and then the average value of the inhibitory tests was calculated.
# [4] = tested on: HepG2; test: Cell viability analysis (WST-1), HepG2; settings: Homo sapiens, read-out: survival rate (viability) of cells
# Description: as §1, §2, §5
# [5] = tested on: skin cancer cells; test: Summary of cell viability, skin cancer cells; settings: 72 hours, read-out: Inhibitory effect
# Description: as §1, §2
# (§6) Cinacalcet HCl is having different inhibitory effect on different tumor cell type even in the same cancer. […] (FIG. 1)
# [6] = tested on: BCC; test: Cell viability analysis (WST-1), BCC; settings: read-out: survival rate (viability) of cells
# Description: as §1, §2, §3
# [7] = tested on: MKN-45; test: Cell viability analysis (WST-1), MKN-45; settings: Homo sapiens, read-out: survival rate (viability) of cells
# Description: as §1, §2, §5
# [8] = tested on: SAS; test: Cell viability analysis (WST-1), SAS
# Description: as §1, §2, §5
# [9] = tested on: A549; test: Cell viability analysis (WST-1), A549; settings: Homo sapiens, read-out: survival rate (viability) of cells
# Description: as §1, §2, §4
# [10] = tested on: 786-O; test: Cell viability analysis (WST-1), 786-O; settings: Homo sapiens
# Description: as §1, §2
# This inhibition test of Cinacalcet HCl on abdominal-related cancer cells were using bladder cancer cell line TSGH and T24 (Table 3), cervical cancer cell lines HeLa and C-33A (Table 4), renal cancer cell line 786-O (Table 5). The inhibitory tests of Cinacalcet HCl were performed 4 times for each cell lines and then the average value of the inhibitory tests was calculated.
# [11] = tested on: LNCap; test: Cell viability analysis (WST-1), LNCap; settings: Homo sapiens, 72 hours, Average of tests, read-out: survival rate (viability) of cells
# Description: as §1
# as §2, with “Otherwise, the higher viability of cancer cells represents worse inhibition effect via the Cinacalcet HCl drug.” left out
# This inhibition test of Cinacalcet HCl on endocrine-related cancer cells were using prostate cancer cell lines PC-3 and LNCap (Table 6), breast cancer cell lines MCF7 and MDA-MB-231 (Table 7), and ovarian cancer cell lines NIH-OVCAR-3 and TOV-21G (Table 8). The inhibitory tests of Cinacalcet HCl were performed 4 times for each cell lines and then the average value of the inhibitory tests was calculated.
# [12] = tested on: bladder cancer cells; test: Summary of cell viability, bladder cancer cells; settings: 72 hours, read-out: Inhibitory effect
# Description: as §1, §2, §6
smiles,measurement,setting,value
"C[C@@H](NCCCc1cccc(C(F)(F)F)c1)c1cccc2ccccc12 [Cinacalcet HCl, Cinacalcet hydrochloride]",viability at 10 µM,"[1]; A-375, 10 μM, 72 hours, test 0602-30 min",117%
same,viability at 10 µM,"[1]; A-375, 10 μM, 72 hours, test 0605-10 min",95.6%
same,viability at 10 µM,"[1]; A-375, 10 μM, 72 hours, test 0607-10 min",94.4%
same,viability at 10 µM,"[1]; A-375, 10 μM, 72 hours, test 0609-10 min",108%
same,viability at 10 µM,"[1]; A-375, 72 h, 10 μM, average of tests",104%
same,viability at 10 µM,"[2]; NCI-H1650, 10 μM, 72 hours, test 1-10 min",86.8%
same,viability at 10 µM,"[2]; NCI-H1650, 10 μM, 72 hours, test 2-20 min",67.5%
same,viability at 10 µM,"[2]; NCI-H1650, 10 μM, 72 hours, test 3-20 min",76.8%
same,viability at 10 µM,"[2]; NCI-H1650, 10 μM, 72 hours, test 4-20 min",75.2%
same,viability at 10 µM,"[2]; NCI-H1650, 72 h, 10 μM, Average of tests",76.5%
same,viability at 10 µM,"[3]; 72 h, average of tests",134%
same,viability at 10 µM,"[3]; 72 hours, test 0612-20 min",143%
same,viability at 10 µM,"[3]; 72 hours, test 0614-20 min",125%
same,viability at 10 µM,"[3]; 72 hours, test 0616-20 min",152%
same,viability at 10 µM,"[3]; 72 hours, test 0619-20 min",117%
same,viability at 10 µM,"[4]; HepG2, 10 μM, 72 hours, test 0524-20 min",106%
same,viability at 10 µM,"[4]; HepG2, 10 μM, 72 hours, test 0526-20 min",133%
same,viability at 10 µM,"[4]; HepG2, 10 μM, 72 hours, test 0529-20 min",116%
same,viability at 10 µM,"[4]; HepG2, 10 μM, 72 hours, test 0531-20 min",89.5%
same,viability at 10 µM,"[4]; HepG2, 72 h, 10 μM, average of tests",111%
same,viability at 10 µM,[5],80%
same,viability at 10 µM,"[6]; 72 h, average of tests",111%
same,viability at 10 µM,"[6]; 72 hours, test 0602-30 min",114%
same,viability at 10 µM,"[6]; 72 hours, test 0605-10 min",106%
same,viability at 10 µM,"[6]; 72 hours, test 0607-10 min",113%
same,viability at 10 µM,"[7]; MKN-45, 10 μM, 72 hours, test 0510-10 min",82.1%
same,viability at 10 µM,"[7]; MKN-45, 10 μM, 72 hours, test 0512-10 min",102%
same,viability at 10 µM,"[7]; MKN-45, 10 μM, 72 hours, test 0515-10 min",104%
same,viability at 10 µM,"[7]; MKN-45, 10 μM, 72 hours, test 0517-10 min",69.1%
same,viability at 10 µM,"[7]; MKN-45, 72 h, 10 μM, average of tests",89.1%
same,viability at 10 µM,"[8]; 72 h, average of tests, read-out: survival rate (viability) of cells",82.4%
same,viability at 10 µM,"[8]; 72 h, summary, tongue cancer, read-out: Inhibitory effect",77.4%
same,viability at 10 µM,"[8]; 72 hours, test 6-26-10 min, read-out: survival rate (viability) of cells",45.7%
same,viability at 10 µM,"[8]; 72 hours, test 6-28-10 min, read-out: survival rate (viability) of cells",88.9%
same,viability at 10 µM,"[8]; 72 hours, test 6-30-10 min, read-out: survival rate (viability) of cells",96.2%
same,viability at 10 µM,"[8]; 72 hours, test 7-3-10 min, read-out: survival rate (viability) of cells",98.9%
same,viability at 10 µM,"[9]; A549, 10 μM, 72 hours, test 0524-10 min",87.7%
same,viability at 10 µM,"[9]; A549, 10 μM, 72 hours, test 0526-10 min",103%
same,viability at 10 µM,"[9]; A549, 10 μM, 72 hours, test 0529-10 min",75.5%
same,viability at 10 µM,"[9]; A549, 10 μM, 72 hours, test 0531-10 min",92.6%
same,viability at 10 µM,"[9]; A549, 72 h, 10 μM, Average of tests",89.6%
same,viability at 10 µM,"[10]; 786-0, 10 μM, 72 hours, test 0524-10 min, read-out: survival rate (viability) of cells",81.3%
same,viability at 10 µM,"[10]; 786-0, 10 μM, 72 hours, test 0526-10 min, read-out: survival rate (viability) of cells",71.6%
same,viability at 10 µM,"[10]; 786-0, 10 μM, 72 hours, test 0529-10 min, read-out: survival rate (viability) of cells",80.2%
same,viability at 10 µM,"[10]; 786-0, 10 μM, 72 hours, test 0531-10 min, read-out: survival rate (viability) of cells",87.1%
same,viability at 10 µM,"[10]; 786-0, 72 h, 10 μM, average of tests, read-out: survival rate (viability) of cells",80%
same,viability at 10 µM,"[10]; 786-0, 72 h, summary, Kidney cancer, 10 μM, read-out: Inhibitory effect",87.5%
same,viability at 10 µM,[11],52.6%
same,viability at 10 µM,[12],90.4%
